Data as given in patent US7696246B2 (Ligand Pharmaceuticals Incorporated, priority 1999, dated 2010).
Read-outs that look alike come from different tables or passages of the source.

Key:
[1] = molecular target: T1, human AR (Homo sapiens, UniProt P10275); test: Co-transfection assay, AR agonist activity (CV-1 cells, MTV-LUC reporter); format: cell-based; conditions: for EC50: agonist potency EC50
T1 sequence (P10275 1-920): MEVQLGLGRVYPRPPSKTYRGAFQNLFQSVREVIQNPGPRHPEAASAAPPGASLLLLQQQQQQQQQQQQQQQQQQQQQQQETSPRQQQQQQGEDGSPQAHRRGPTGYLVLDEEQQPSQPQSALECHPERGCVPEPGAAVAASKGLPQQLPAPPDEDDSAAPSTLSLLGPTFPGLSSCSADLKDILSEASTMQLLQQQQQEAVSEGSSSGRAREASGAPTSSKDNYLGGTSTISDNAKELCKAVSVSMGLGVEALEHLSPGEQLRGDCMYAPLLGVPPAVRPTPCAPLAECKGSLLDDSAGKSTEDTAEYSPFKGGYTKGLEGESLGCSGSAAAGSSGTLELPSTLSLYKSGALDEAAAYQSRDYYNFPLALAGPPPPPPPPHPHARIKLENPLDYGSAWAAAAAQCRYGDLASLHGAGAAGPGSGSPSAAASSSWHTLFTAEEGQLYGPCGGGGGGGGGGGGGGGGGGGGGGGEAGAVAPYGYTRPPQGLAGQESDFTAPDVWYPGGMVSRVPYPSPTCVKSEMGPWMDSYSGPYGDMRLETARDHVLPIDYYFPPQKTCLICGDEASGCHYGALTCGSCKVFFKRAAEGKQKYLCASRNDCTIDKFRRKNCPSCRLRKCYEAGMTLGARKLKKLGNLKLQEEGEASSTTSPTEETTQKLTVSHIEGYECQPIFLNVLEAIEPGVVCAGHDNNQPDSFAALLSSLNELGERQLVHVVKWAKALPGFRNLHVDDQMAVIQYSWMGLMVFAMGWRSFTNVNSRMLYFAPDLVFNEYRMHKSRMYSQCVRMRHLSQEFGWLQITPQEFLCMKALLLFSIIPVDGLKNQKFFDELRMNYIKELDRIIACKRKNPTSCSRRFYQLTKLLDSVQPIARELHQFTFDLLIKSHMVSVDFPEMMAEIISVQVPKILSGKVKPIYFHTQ

[2] = molecular target: T1, human AR; test: Co-transfection assay, AR antagonist activity (CV-1 cells, in presence of DHT); format: cell-based
[3] = molecular target: T1, human AR; test: AR whole cell competitive binding assay (COS-1 cells, 3H-DHT); conditions: 1 nM 3H-DHT, Cheng-Prusoff
[4] = CV-1 cells, percent maximal response relative to reference agonist DHT
[5] = CV-1 cells, percent maximal inhibition, DHT at its EC50
[6] = read-out: AR Antagonist CV-1 Cells Potency

Row | Compound | EC50 ([1]; CV-1 cells) [nM] | AR Agonist CV-1 Cells Efficacy (%) [1, 4] [%] | AR Antagonist CV-1 Cells Efficacy (%) [2, 5] | IC50 [2, 6] [nM] | Ki [3] [nM] | AR Antagonist CV-1 Cells Efficacy (%) [2] | IC50 [2] [nM] | AR Agonist CV-1 Cells Efficacy (%) [1] [%] | IC50 ([2]; CV-1 cells, antagonist potency IC50, DHT at its EC50, read-out: AR Antagonist CV-1 Cells Potency) [nM]
1 | CC(C)c1ccc2[nH]c(=O)cc(C(F)(F)F)c2c1 [Compound 615, 6-Isopropyl-4-trifluoromethyl-2(1H)-quinolinone] | 2800 | 23 | 82% | 48 | 56 | – | – | – | –
2 | Cc1cc(=O)[nH]c2ccc(N(CC(C)C)CC(F)(F)F)cc12 [Compound 381, 6-(N-Isobutyl-N-2,2,2-trifluoroethyl)amino-4-methyl-2(1H)-quinolinone] | – | 72 | na (na = not active (i.e. efficacy of <20 and potency of >10,000)) | – | – | – | – | – | –
3 | O=c1cc(C(F)(F)F)c2cc(-c3ccccc3)ccc2[nH]1 [Compound 764, 4-Trifluoromethyl-6-phenyl-2(1H)-quinolinone] | > 10000 | – | 87% | 30 | 16 | – | – | – | –
4 | C=CC1CCCCN1c1ccc2[nH]c(=O)cc(C(F)(F)F)c2c1 (racemic) [Compound 444, (±)-6-(2-Vinyl-1-piperidino)-4-trifluoromethyl-2(1H)-quinolinone] | 73 | 83 | na (na = not active (i.e. efficacy of <20 and potency of >10,000)) | > 10000 | 26 | – | – | – | –
5 | CCCNc1ccc2c(C(F)(F)F)cc(=O)[nH]c2c1 [Compound 513, 7-Propylamino-4-trifluoromethyl-2(1H)-quinolinone] | – | – | – | – | – | 84% | – | – | –
6 | O=c1cc(C(F)(F)F)c2cc(N3CCCCC3CCOCc3ccccc3)ccc2[nH]1 (racemic) [Compound 445, (±)-6-(2-Benzyloxyethyl-1-piperidino)-4-trifluoromethyl-2(1H)-quinolinone] | 26 | 104 | na (na = not active (i.e. efficacy of <20 and potency of >10,000)) | – | 5.8 | – | > 10000 | – | –
7 | CC1(C)CC(=O)Nc2ccc(N(CC(F)(F)F)CC(F)(F)F)cc21 [Compound 501, 3,4-Dihydro-4,4-dimethyl-6-(bis-N,N-2,2,2-trifluoroethyl)amino-2(1H)-quino-linone] | 5.8 | 110 | na (na = not active (i.e. efficacy of <20 and potency of >10,000)) | > 10000 | 16 | – | – | – | –
8 | O=c1cc(C(F)(F)F)c2cc(N(CC(F)(F)C(F)(F)F)CC(F)(F)C(F)(F)F)ccc2[nH]1 [Compound 224, 6-(bis-2,2,3,3,3-Pentafluoropropyl)amino-4-trifluoromethyl-2(1H)-quinolinone] | 41 | 108 | na (na = not active (i.e. efficacy of <20 and potency of >10,000)) | > 10000 | 206 | – | – | – | –
9 | O=c1cc(C(F)(F)F)c2cc(C3CCCCC3)ccc2[nH]1 [Compound 616, 6-Cyclohexyl-4-trifluoromethyl-2(1H)-quinolinone] | > 10000 | – | 92% | 17 | 15 | – | – | – | –
10 | CCCN(CC1CC1)c1ccc2[nH]c(=O)cc(C(F)(F)F)c2c1 [Compound 254, 6-(N-Propyl-N-cyclopropylmethyl)amino-4-trifluoromethyl-2(1H)-quinolinone] | 0.9 | 78 | na (na = not active (i.e. efficacy of <20 and potency of >10,000)) | > 10000 | 12 | – | – | – | –
11 | O=c1cc(C(F)(F)F)c2cc(N3CCCc4ccccc43)ccc2[nH]1 [Compound 348, 6-(1-Tetrahydroquinolino)-4-trifluoromethyl-2(1H)-quinolinone] | > 10000 | – | 81% | 24 | 62 | – | – | – | –
12 | CCCNc1ccc2[nH]c(=O)cc(C(F)(F)F)c2c1 [Compound 204, 6-Propylamino-4-trifluoromethyl-2(1H)-quinolinone] | – | – | – | – | – | 72% | – | 34 | –
13 | O=c1cc(C(F)(F)F)c2cc(NCC(Cl)(Cl)Cl)ccc2[nH]1 [Compound 227, 6-(N-2,2,2-Trichloroethyl)amino-4-trifluoromethyl-2(1H)-quinolinone] | > 10000 | – | 73% | 14 | 38 | – | – | – | –
14 | CC(C)CN(CC(F)(F)F)c1ccc2[nH]c(=O)cc(C(F)(F)F)c2c1 [Compound 259, 6-(N-2,2,2-trifluoroethyl-N-isobutyl)amino-4-trifluoromethyl-2(1H)-quinolinone] | 1.9 | 97 | na (na = not active (i.e. efficacy of <20 and potency of >10,000)) | > 10000 | 6.3 | – | – | – | –
15 | CC1(C)CC2CC(C)(CN2c2ccc3[nH]c(=O)cc(C(F)(F)F)c3c2)C1 (racemic) [Compound 350, (±)-6-(1,3,3-Trimethyl-6-azabicyclo[3.2.1]octanyl-6-)-4-trifluoromethyl-2(1H)-quinolinone] | 29 | 73 | na (na = not active (i.e. efficacy of <20 and potency of >10,000)) | > 10000 | 165 | – | – | – | –
16 | O=c1cc(C(F)(F)F)c2cc(N3CCCC[C@@H]3CCl)ccc2[nH]1 [Compound 433, (−)R-6-(2-Chloromethyl-1-piperidino)-4-trifluoromethyl-2(1H)-quinolinone] | 6.4 | 120 | na (na = not active (i.e. efficacy of <20 and potency of >10,000)) | > 10000 | 1.5 | – | – | – | –
17 | O=c1cc(C(F)(F)F)c2cc(C3=CCCCCC3)ccc2[nH]1 [Compound 633, 6-Cycloheptenyl-4-trifluoromethyl-2(1H)-quinolinone] | 38 | 33 | 51% | 7.5 | 97 | – | – | – | –
18 | CCN(c1ccc2[nH]c(=O)cc(C(F)(F)F)c2c1)C(C)C [Compound 239, 6-(N-Ethyl-N-isopropyl)amino-4-trifluoromethyl-2(1H)-quinolinone] | – | – | – | – | – | na (key: na = not active (i.e. efficacy of <20 and potency of >10,000)) | – | 83 | –
19 | 4-Methyl-6-(2,4-dichlorolphenyl)-2(1H)-quinolinone [Compound 762] | > 10000 | – | 81% | – | – | – | – | – | 63
20 | C=CC(C)(C)Nc1ccc2c(C(F)(F)F)cc(=O)[nH]c2c1 [Compound 559, 7-(1,1-Dimethylallyl)amino-4-trifluoromethyl-2(1H)-quinolinone] | – | – | – | – | – | 92% | – | – | –
21 | O=c1cc(C(F)(F)F)c2ccc(NCC(F)(F)C(F)(F)F)cc2[nH]1 [Compound 520, 7-(2,2,3,3,3-Pentafluoropropyl)amino-4-trifluoromethyl-2(1H)-quinolinone] | – | – | – | – | – | 76% | – | – | –
22 | CC(C)Nc1ccc2c(C(F)(F)F)cc(=O)[nH]c2c1 [Compound 514, 7-Isopropylamino-4-trifluoromethyl-2(1H)-quinolinone] | – | – | – | – | – | 87% | – | – | –
23 | O=c1cc(C(F)(F)F)c2ccc(NCC(F)(F)F)cc2[nH]1 [Compound 523, 7-(N-2,2,2-Trifluoroethyl)amino-4-trifluoromethyl-2(1H)-quinolinone] | – | – | – | – | – | 62% | – | 29 | –
24 | O=C(Nc1ccc2c(C(F)(F)F)cc(=O)[nH]c2c1)C(F)(F)F [Compound 528, 7-(Trifluoroacetamido)-4-trifluoromethyl-2(1H)-quinolinone] | 1300 | 36 | 59% | 26 | – | – | – | – | –
25 | Cc1cc(=O)[nH]c2ccc(N(CC(F)(F)F)CC(F)(F)F)cc12 [Compound 377, 6-(bis-2,2,2-Trifluoroethyl)amino-4-methyl-2(1H)-quinolinone] | – | – | – | – | – | na (key: na = not active (i.e. efficacy of <20 and potency of >10,000)) | – | 89 | –
26 | CCCCN(CCCC)c1ccc2[nH]c(=O)cc(C(F)(F)F)c2c1 [Compound 220, 6-Dibutylamino-4-trifluoromethyl-2(1H)-quinolinone] | – | – | – | – | – | 54% | – | 68 | –
27 | CCC(C)c1cc2c(C(F)(F)F)cc(=O)[nH]c2cc1N (stereo not shown) [Compound 581, 7-Amino-6-sec-butyl-4-trifluoromethyl-2(1H)-quinolinone] | – | 39 | 23% | – | – | – | – | – | –
